Counter-ions that a name gives are not always drawn.
Target: T1, Standard Human Vimentin (Homo sapiens, UniProt P08670)
T1 construct: purchased PROGEN Biotechnik 62015
Assay: Measurement of Kd value between Vimentin and Intal with Biacore (SPR)
Type: binding
Conditions: SPR on Biacore3000; Intal PEG amine immobilized on CM5 chip; Vimentin 0.29 nM to 4.6 μM infused for 5 min
Method: Intal PEG amine synthesized as above was immobilized to Biacore CM5 chip (#BR-1000-14), according to a method described in BIAapplications Handbook (published by Biacore).
Control data was obtained by using a chip to which 2-ethanolamine was immobilized by the same way.
As Vimentin, Standard Human Vimentin (cat. No. 62015) purchased from PROGEN Biotechnik was subjected to buffer exchange by Running buffer(0.25 M Sucrose, 25 mM Tris-HCl pH7.5, 0.3 mM sodium N,N-diethyldithiocarbamate, 25 mM urea, 1 mM calcium chloride) and used to measure Kd.
The measurement of Kd was performed by SPR (surface plasmon resonance) spectrum measurement on Biacore3000 (Biacore). The above-mentioned Running buffer was run through the Intal-immobilized CM5 chip prepared by the above-mentioned procedure at 20 μl per min. Thereto, each sample which was prepared by gradually diluting the Vimentin prepared by the above-mentioned procedure (0.29 nM to 4.6 μM) was infused for 5 min., and the obtained SPR spectrum was analyzed by BIAevaluation software Ver.

T1 sequence (P08670 whole entry): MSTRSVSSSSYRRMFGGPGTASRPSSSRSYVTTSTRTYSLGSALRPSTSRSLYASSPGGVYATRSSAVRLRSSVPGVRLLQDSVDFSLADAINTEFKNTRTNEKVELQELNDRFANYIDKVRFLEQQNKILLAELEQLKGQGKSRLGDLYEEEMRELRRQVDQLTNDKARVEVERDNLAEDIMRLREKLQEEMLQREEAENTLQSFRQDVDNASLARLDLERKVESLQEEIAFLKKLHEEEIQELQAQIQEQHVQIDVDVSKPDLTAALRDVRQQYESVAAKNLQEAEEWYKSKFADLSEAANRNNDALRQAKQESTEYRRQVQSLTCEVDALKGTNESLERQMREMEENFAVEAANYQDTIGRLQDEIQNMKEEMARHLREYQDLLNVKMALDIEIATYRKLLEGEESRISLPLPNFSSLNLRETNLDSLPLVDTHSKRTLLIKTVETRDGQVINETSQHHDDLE

O=C(O)c1cc(=O)c2c(OCC(O)COc3cccc4oc(C(=O)O)cc(=O)c34)cccc2o1 [Intal, disodium salt of 1,3-bis(2-carboxychromon-5-yloxy)-2-hydroxypropane]
Kd: 56 nM

Source: patent publication US20100094026A1, “METHOD OF SCREENING COMPOUND USEFUL IN TREATING ALLERGIC DISEASE” (REVERSE PROTEOMICS RESEARCH INSTITUTE CO., LTD., priority 2005, published 2010)
